Reference: ChEMBL document CHEMBL1201862, “PubChem BioAssay data set” (2004)
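These data come from cells grown in 96-well plates and exposed to compound for 48 hours at five concentrations. At the GI50, growth is halved.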 Activity calls are given as the source filed them. Cut-off read from the data, not from the text of the source: active = GI50 up to about 1.1 µM and inactive = higher.

Assays:
Experiment in all cases: DTP human tumour cell line panel, 48 h
786-0 = system: 786-0
A498 = system: A498
A549 = system: A549
ACHN = system: ACHN
BT-549 = system: BT-549
CAKI-1 = system: CAKI-1
CCRF-CEM = system: CCRF-CEM
COLO 205 = system: COLO 205
DU-145 = system: DU-145
EKVX = system: EKVX
HCC 2998 = system: HCC 2998
HCT-116 = system: HCT-116
HCT-15 = system: HCT-15
HL-60 = system: HL-60
HOP-62 = system: HOP-62
HOP-92 = system: HOP-92
HT-29 = system: HT-29
Hs-578T = system: Hs-578T
K562 = system: K562
KM12 = system: KM12
LOX IMVI = system: LOX IMVI
M14 = system: M14
MCF7 = system: MCF7
MDA-MB-231 = system: MDA-MB-231
MDA-MB-435 = system: MDA-MB-435
MDA-N = system: MDA-N
MOLT-4 = system: MOLT-4
Malme-3M = system: Malme-3M
NCI-H226 = system: NCI-H226
NCI-H23 = system: NCI-H23
NCI-H460 = system: NCI-H460
NCI-H522 = system: NCI-H522
NCI/ADR-RES = system: NCI/ADR-RES
OVCAR-3 = system: OVCAR-3
OVCAR-4 = system: OVCAR-4
OVCAR-5 = system: OVCAR-5
OVCAR-8 = system: OVCAR-8
RPMI-8226 = system: RPMI-8226
RXF 393 = system: RXF 393
SF-268 = system: SF-268
SF-295 = system: SF-295
SF-539 = system: SF-539
SK-MEL-28 = system: SK-MEL-28
SK-MEL-2 = system: SK-MEL-2
SK-MEL-5 = system: SK-MEL-5
SK-OV-3 = system: SK-OV-3
SN12C = system: SN12C
SNB-19 = system: SNB-19
SR = system: SR
SW-620 = system: SW-620
T47D = system: T47D
TK-10 = system: TK-10
U-251 = system: U-251
UACC-257 = system: UACC-257
UACC-62 = system: UACC-62
UO-31 = system: UO-31
IGROV-1 = system: IGROV-1
PC-3 = system: PC-3
SNB-75 = system: SNB-75

Measured: GI50

COc1ccccc1N1C(=O)/C(=C\c2cc(OC)c(OC)c(OC)c2)SC1c1ccccc1 (stereo unspecified)
inactive: 786-0 97.5 µM | A498 > 100 µM | A549 57.4 µM | ACHN 44.4 µM | BT-549 84.9 µM | CAKI-1 > 100 µM | CCRF-CEM 6.76 µM | COLO 205 24.1 µM | DU-145 > 100 µM | EKVX 13.2 µM | HCC 2998 > 100 µM | HCT-116 18.5 µM | HL-60 26.2 µM | HOP-62 27.8 µM | HOP-92 22.7 µM | HT-29 45.3 µM | Hs-578T 24 µM | K562 4.33 µM | KM12 21.1 µM | LOX IMVI 26.9 µM | M14 16.5 µM | MCF7 18.2 µM | MDA-MB-231 44.8 µM | MDA-MB-435 14.9 µM | MDA-N 15.2 µM | MOLT-4 9.95 µM | Malme-3M 20.3 µM | NCI-H226 28.9 µM | NCI-H23 31.4 µM | NCI-H460 51.5 µM | NCI-H522 13.7 µM | NCI/ADR-RES 43 µM | OVCAR-3 37.5 µM | OVCAR-4 49.4 µM | OVCAR-5 > 100 µM | OVCAR-8 42 µM | RPMI-8226 3.11 µM | RXF 393 14.5 µM | SF-268 31.6 µM | SF-295 23.1 µM | SF-539 99.3 µM | SK-MEL-28 45.4 µM | SK-MEL-2 68.4 µM | SK-MEL-5 14.2 µM | SK-OV-3 21.4 µM | SN12C 91 µM | SNB-19 27 µM | SR 13.3 µM | SW-620 53.1 µM | T47D 36.6 µM | TK-10 53.3 µM | U-251 24.4 µM | UACC-257 36.1 µM | UACC-62 36.1 µM | UO-31 11.5 µM
44.7 µM: HCT-15

CCOC(=O)CCC(NC(=O)c1ccc(OCc2ccc3nc(OC)c(OC)nc3c2)cc1)C(=O)OCC (stereo unspecified)
75.5 µM: HCT-15
inactive: 786-0 > 100 µM | A498 71 µM | A549 > 100 µM | ACHN 32.9 µM | BT-549 43.3 µM | CAKI-1 > 100 µM | CCRF-CEM 24 µM | COLO 205 16.7 µM | DU-145 69.5 µM | HCC 2998 50.1 µM | HCT-116 50.7 µM | HL-60 31.7 µM | HOP-62 > 100 µM | HOP-92 40.9 µM | HT-29 > 100 µM | Hs-578T 33.9 µM | IGROV-1 55.8 µM | K562 22.3 µM | KM12 > 100 µM | LOX IMVI 80 µM | M14 21.9 µM | MCF7 35.1 µM | MDA-MB-435 27.3 µM | MDA-N 24 µM | MOLT-4 22.7 µM | Malme-3M 21.4 µM | NCI-H226 > 100 µM | NCI-H23 > 100 µM | NCI-H460 22.6 µM | NCI-H522 24.7 µM | OVCAR-3 20.2 µM | OVCAR-5 > 100 µM | OVCAR-8 > 100 µM | PC-3 36.4 µM | RPMI-8226 70.8 µM | RXF 393 25.9 µM | SF-268 57.7 µM | SF-295 59.4 µM | SF-539 57.3 µM | SK-MEL-28 44.6 µM | SK-MEL-2 23.3 µM | SK-MEL-5 38.4 µM | SK-OV-3 > 100 µM | SN12C 45.3 µM | SNB-19 74.3 µM | SNB-75 52.6 µM | SR 45.1 µM | SW-620 > 100 µM | T47D 31.7 µM | TK-10 35.2 µM | U-251 > 100 µM | UACC-257 29.1 µM | UACC-62 30.4 µM | UO-31 64.6 µM
